In PMC5412686 (Biopharmaceutics & Drug Disposition, 2017):
≈ marks a conversion by molar mass, not a printed value. Like-named read-outs stand apart in the source and are kept apart here.

Assays:
[1] = Intrinsic metabolic clearance determined in human liver microsomes; type: in vitro ADME; conditions: pH 7.4
[2] = Humans, blood/plasma ratio; ref Supplemental Table S1; cited from earlier work
[3] = no medium marked (buffer pH 7.4); ref Supplemental Table S1; cited from earlier work
[4] = Rat i.v. and oral pharmacokinetics from literature; type: in vivo, rats; conditions: liver blood flow 80 ml/min/kg
[5] = ref Supplemental Table S1, cited from earlier work; for HBD: number of hydrogen bond donors; for PSA: polar surface area; for log D: octanol/water at pH 7.4
[6] = Rats, blood/plasma ratio; ref Supplemental Table S1; cited from earlier work
[7] = Rats, fraction unbound; ref Supplemental Table S1; cited from earlier work
[8] = Humans, cited from earlier work; for Urinary excretion (f e): excreted unchanged in urine, ref Supplemental Table S1; for CL: i.v.; for CL / F / Vss: ref Supplemental Table S2; for F: oral bioavailability
[9] = cited from earlier work
Caco‐2 cells (TC7 clone) = conditions: Equation 11 from measured P‐Caco2
[10] = human, Caco-2, pH 7.4, with cyclosporine A 10 μM
[11] = Solubility in fasted state simulated intestinal fluid; type: physicochemical; conditions: FaSSIF, 37 °C, pH 6.5, fassif, thermodynamic from solid
[12] = Humans, fraction unbound in plasma; ref Supplemental Table S1; cited from earlier work
[13] = Rats, i.v., ref Supplemental Table S2

SMILES: Cc1nnc2n1-c1ccc(Cl)cc1C(c1ccccc1)=NC2 [Alprazolam]
- microsomal CLint at 1 μM [1]: < 10 µL/min/mg
- R b [2]: 0.78
- Solubility (Biorelevant media or Buffer, pH 7.4) [3]: 40 mg/ml
- Rat blood clearance compared with liver blood flow [4]: exceeding maximum liver blood flow value
- HBD [5]: 0
- PSA [5]: 33.3
- R b [6]: 0.81
- f up [7]: 0.35
- Urinary excretion (f e) [8]: 20 % of dose
- CL [8]: 3.11 L/h
- F [8]: 0.96
- CL [9, 13]: 133 mL/min/kg
- F ([9]; Rats, oral bioavailability, ref Supplemental Table S2): 0.28
- Calculated P eff from P‐Caco2 (Caco‐2 cells (TC7 clone)): 4.3 10^−4 cm/s
- Papp at 2 h, 1 μM [10]: 38.6 ×10⁻⁶ cm/s

SMILES: C=CCc1ccccc1OCC(O)CNC(C)C (stereo not shown) [Alprenolol]
- microsomal CLint at 1 μM [1]: 128 µL/min/mg
- R b [2]: 0.76
- Solubility (Biorelevant media or Buffer, pH 7.4) [3]: 0.55 mg/ml
- HBD [5]: 2
- log D [5]: 1.34
- PSA [5]: 46.2
- R b [6]: 1.71
- Urinary excretion (f e) [8]: 0.5 % of dose
- CL [8]: 65.90 L/h
- F [8]: 0.06
- Vss [8]: 2.99 L/kg
- CL [9, 13]: 79 mL/min/kg
- F ([9]; rat, in vivo, po): 0.04
- Calculated P eff from P‐Caco2 (Caco‐2 cells (TC7 clone)): 3.9 10^−4 cm/s
- Papp at 2 h, 1 μM [10]: 31.5 ×10⁻⁶ cm/s

SMILES: O=c1[nH]c2ccccc2n1CCCN1CCC(n2c(=O)[nH]c3cc(Cl)ccc32)CC1 [Domperidone]
- microsomal CLint at 1 μM [1]: 166 µL/min/mg
- solubility at 24 h [11]: 135 µg/mL (≈ 317 µM)
- HBD [5]: 2
- log D [5]: 3.33
- PSA [5]: 66.8
- Urinary excretion (f e) [8]: < 1 % of dose
- CL [8]: 42.06 L/h
- CL [9, 13]: 39.2 mL/min/kg
- Calculated P eff from P‐Caco2 (Caco‐2 cells (TC7 clone)): 4.3 10^−4 cm/s
- Papp at 2 h, 1 μM [10]: 38.6 ×10⁻⁶ cm/s

SMILES: CCOC(=O)C1=C(C)NC(C)=C(C(=O)OC)C1c1cccc(Cl)c1Cl (stereo not shown) [Felodipine]
- R b [2]: 0.7
- solubility at 24 h [11]: 40 µg/mL (≈ 104 µM)
- HBD [5]: 1
- log D [5]: 4.76
- PSA [5]: 68.7
- Acid pKa [5]: 5.1
- R b [6]: 0.68
- f up [7]: 0.001
- Urinary excretion (f e) [8]: < 1 % of dose
- F [8]: 0.25
- F ([9]; rat, in vivo, po): 0.1

SMILES: CCOC(=O)c1ncn2c1CN(C)C(=O)c1cc(F)ccc1-2 [Flumazenil]
- microsomal CLint at 1 μM [1]: 39 µL/min/mg
- R b [2]: 1
- Solubility (Biorelevant media or Buffer, pH 7.4) [3]: 0.13 mg/ml
- Rat blood clearance compared with liver blood flow [4]: exceeding maximum liver blood flow value
- HBD [5]: 0
- log D [5]: 0.87
- PSA [5]: 57.0
- f up [7]: 0.14
- Urinary excretion (f e) [8]: 0.5 % of dose
- CL [8]: 72.06 L/h
- Vss [8]: 0.97 L/kg
- CL [9, 13]: 147 mL/min/kg
- F ([9]; rat, in vivo, po): 0.28

SMILES: CCN(CC)CC(=O)Nc1c(C)cccc1C [Lidocaine]
- R b [2]: 0.87
- R b [6]: 1.27

SMILES: Cc1ncc2n1-c1ccc(Cl)cc1C(c1ccccc1F)=NC2 [Midazolam]
- microsomal CLint at 1 μM [1]: 392 µL/min/mg
- R b [2]: 0.75
- Solubility (Biorelevant media or Buffer, pH 7.4) [3]: 0.024 mg/ml
- HBD [5]: 0
- log D [5]: 1.53
- PSA [5]: 20.1
- Base pKa [5]: 5.6
- R b [6]: 0.81
- Urinary excretion (f e) [8]: < 1 % of dose
- CL [8]: 19.38 L/h
- F [8]: 0.7
- Vss [8]: 0.74 L/kg
- CL ([9]; rat, in vivo, iv): 46 mL/min/kg
- F ([9]; rat, in vivo, po): 0.25

SMILES: COC(=O)C1=C(C)NC(C)=C(C(=O)OCCN(C)Cc2ccccc2)C1c1cccc([N+](=O)[O-])c1 (stereo not shown) [Nicardipine]
- solubility at 24 h [11]: 227 µg/mL (≈ 473 µM)
- HBD [5]: 1
- PSA [5]: 114.0
- Base pKa [5]: 7.3
- f up [7]: 0.01
- F ([9]; rat, in vivo, po): 0.22

SMILES: CCOC(=O)C1=C(C)NC(C)=C(C(=O)OC)C1c1cccc([N+](=O)[O-])c1 (stereo not shown) [Nitrendipine]
- R b [2]: 1.46
- solubility at 24 h [11]: 8 µg/mL (≈ 22.2 µM)
- HBD [5]: 1
- log D [5]: 3.81
- PSA [5]: 112.9
- R b [6]: 1.46
- Urinary excretion (f e) [8]: < 1 % of dose
- CL [8]: 78.89 L/h
- F [8]: 0.39
- Vss [8]: 5.39 L/kg
- CL [9, 13]: 16.5 mL/min/kg
- F ([9]; rat, in vivo, po): 0.12

SMILES: COc1ccc2[nH]c([S+]([O-])Cc3ncc(C)c(OC)c3C)nc2c1 (stereo not shown) [Omeprazole]
- microsomal CLint at 1 μM [1]: < 10 µL/min/mg
- R b [2]: 0.59
- Solubility (Biorelevant media or Buffer, pH 7.4) [3]: 0.035 mg/ml
- HBD [5]: 1
- log D [5]: 2.23
- PSA [5]: 71.0
- R b [6]: 0.66
- Urinary excretion (f e) [8]: 0 % of dose
- CL [8]: 39.48 L/h
- F [8]: 0.32
- CL [9, 13]: 39.2 mL/min/kg
- F ([9]; rat, in vivo, po): 0.09

SMILES: CC(C)(C)NC(=O)[C@@H]1C[C@@H]2CCCC[C@@H]2CN1C[C@@H](O)[C@H](Cc1ccccc1)NC(=O)[C@H](CC(N)=O)NC(=O)c1ccc2ccccc2n1 [Saquinavir]
- Solubility (Biorelevant media or Buffer, pH 7.4) [3]: 2.22 mg/ml
- HBD [5]: 5
- log D [5]: 5.05
- PSA [5]: 178.8
- Base pKa [5]: 7.7
- f up [7]: 0.05
- f up [12]: 0.03
- CL ([9]; rat, in vivo, iv): 88.5 mL/min/kg
- F ([9]; rat, in vivo, po): 0.07
- Calculated P eff from P‐Caco2 (Caco‐2 cells (TC7 clone)): 1.6 10^−4 cm/s
- Papp at 2 h, 1 μM [10]: 5 ×10⁻⁶ cm/s

SMILES: C=CC[C@@H]1/C=C(\C)C[C@H](C)C[C@H](OC)[C@H]2O[C@@](O)(C(=O)C(=O)N3CCCC[C@H]3C(=O)O[C@H](/C(C)=C/[C@@H]3CC[C@@H](O)[C@H](OC)C3)[C@H](C)[C@@H](O)CC1=O)[C@H](C)C[C@@H]2OC [Tacrolimus]
- R b [2]: 35
- Solubility (Biorelevant media or Buffer, pH 7.4) [3]: 0.008 mg/ml
- HBD [5]: 3
- log D [5]: 3.96
- PSA [5]: 185.9
- Base pKa [5]: 9.3
- R b [6]: 1.4
- Urinary excretion (f e) [8]: < 1 % of dose
- CL [8]: 78.75 L/h
- F [8]: 0.21
- Vss [8]: 1.74 L/kg
- CL [9, 13]: 16.5 mL/min/kg
- F ([9]; rat, in vivo, po): 0.11

SMILES: Cc1ccc(O)c([C@H](CCN(C(C)C)C(C)C)c2ccccc2)c1 [Tolterodine]
- microsomal CLint at 1 μM [1]: 115 µL/min/mg
- Solubility (Biorelevant media or Buffer, pH 7.4) [3]: 12 mg/ml
- Rat blood clearance compared with liver blood flow [4]: exceeding maximum liver blood flow value
- HBD [5]: 1
- log D [5]: 2.38
- PSA [5]: 24.1
- CL [8]: 27.72 L/h
- F [8]: 0.72
- Vss [8]: 1.4 L/kg
- CL [9, 13]: 166.7 mL/min/kg
- F ([9]; rat, in vivo, po): 0.02
- Calculated P eff from P‐Caco2 (Caco‐2 cells (TC7 clone)): 3.6 10^−4 cm/s
- Papp at 2 h, 1 μM [10]: 26.2 ×10⁻⁶ cm/s

SMILES: Cc1ccc(-c2nc3ccc(C)cn3c2CC(=O)N(C)C)cc1 [Zolpidem]
- microsomal CLint at 1 μM [1]: < 10 µL/min/mg
- R b [2]: 0.66
- Solubility (Biorelevant media or Buffer, pH 7.4) [3]: 23 mg/ml
- HBD [5]: 0
- PSA [5]: 30.0
- Acid pKa [5]: 6.3
- R b [6]: 0.86
- Urinary excretion (f e) [8]: < 1 % of dose
- CL [8]: 18.85 L/h
- F [8]: 0.78
- Vss [8]: 0.68 L/kg
- CL [9, 13]: 15 mL/min/kg
- F ([9]; rat, in vivo, po): 0.27
